According to ChEMBL document CHEMBL3227999, “Synthesis and biological properties of N2-substituted spin-labeled analogues of actinomycin D” (J Med Chem, 1979):
The source made the active and inactive calls. No cut-off for these calls is given here.

How the values were obtained:
Mus musculus [1] = experiment: Toxicity in mouse P388 cells allografted CDF1 mouse assessed as weight loss at 6 mg/kg, ip administered on day 1, 5 and 9; assay type: organism-based; design: dose 6 mg/kg, route intraperitoneal; details: in vivo
[2] = target: Bacterial DNA-directed RNA polymerase (Bacteria, UniProt P0A7Z4+P0A800+P0A8T7+P0A8V2); experiment: Inhibition of Escherichia coli DNA-dependent RNA polymerase; assay type: protein-complex assay
P388 [3] = experiment: Antitumor activity against mouse P388 cells allografted in CDF1 mouse assessed as survival at 1.8 mg/kg, ip administered on day 1, 5 and 9; assay type: functional; details: route intraperitoneal
L1210 [4] = experiment: Cytotoxicity against mouse L1210 cells at 0.1 ug/ml after 48 hrs; assay type: functional; details: L1210, 48 h
[5] = target: T1, Bacterial DNA-directed RNA polymerase (Bacteria) (UniProt P0A8V2+P0A7Z4+P0A8T7+P0A800); experiment: Inhibition of Escherichia coli DNA-dependent RNA polymerase at 5 ug/ml using Micrococcus luteus DNA as primer; assay type: protein-complex assay
P388 [6] = experiment: Antitumor activity against mouse P388 cells allografted in CDF1 mouse assessed as survival at 2.7 mg/kg, ip administered on day 1, 5 and 9; assay type: functional; details: route intraperitoneal
Calf thymus DNA [7] = experiment: Binding affinity to calf thymus DNA at 1 x 10^-5 M by lectron spin resonance analysis; assay type: nucleic-acid assay; details: Bos taurus
L1210 [8] = experiment: Cytotoxicity against mouse L1210 cells at 10 ug/ml after 48 hrs; assay type: functional; details: L1210, 48 h
Calf thymus DNA [9] = experiment: Binding affinity to calf thymus DNA at 1 x 10^-5 M after 30 mins by circular dichroism analysis; assay type: nucleic-acid assay; details: Bos taurus
L1210 [10] = experiment: Cytotoxicity against mouse L1210 cells at 5 ug/ml after 48 hrs; assay type: functional; details: L1210, 48 h
[11] = target: T1, Bacterial DNA-directed RNA polymerase (Bacteria); experiment: Inhibition of Escherichia coli DNA-dependent RNA polymerase at 2.5 ug/ml using Micrococcus luteus DNA as primer; assay type: protein-complex assay
[12] = target: T1, Bacterial DNA-directed RNA polymerase (Bacteria); experiment: Inhibition of Escherichia coli DNA-dependent RNA polymerase at 10 ug/ml using calf thymus DNA as primer; assay type: protein-complex assay
P388 [13] = experiment: Antitumor activity against mouse P388 cells allografted in CDF1 mouse assessed as survival at 1.2 mg/kg, ip administered on day 1, 5 and 9; assay type: functional; details: route intraperitoneal
L1210 [14] = experiment: Cytotoxicity against mouse L1210 cells at 0.01 ug/ml after 48 hrs; assay type: functional; details: L1210, 48 h
L1210 [15] = experiment: Cytotoxicity against mouse L1210 cells at 0.001 ug/ml after 48 hrs; assay type: functional; details: L1210, 48 h
[16] = target: T1, Bacterial DNA-directed RNA polymerase (Bacteria); experiment: Inhibition of Escherichia coli DNA-dependent RNA polymerase at 10 ug/ml using Micrococcus luteus DNA as primer; assay type: protein-complex assay
[17] = target: T1, Bacterial DNA-directed RNA polymerase (Bacteria); experiment: Inhibition of Escherichia coli DNA-dependent RNA polymerase at 20 ug/ml using Micrococcus luteus DNA as primer; assay type: protein-complex assay
P388 [18] = experiment: Antitumor activity against mouse P388 cells allografted in CDF1 mouse assessed as survival at 4 mg/kg, ip administered on day 1, 5 and 9; assay type: functional; details: route intraperitoneal
L1210 [19] = experiment: Cytotoxicity against mouse L1210 cells at 1 ug/ml after 48 hrs; assay type: functional; details: L1210, 48 h
P388 [20] = experiment: Antitumor activity against mouse P388 cells allografted in CDF1 mouse assessed as survival at 0.8 mg/kg, ip administered on day 1, 5 and 9; assay type: functional; details: route intraperitoneal
[21] = target: T1, Bacterial DNA-directed RNA polymerase (Bacteria); experiment: Inhibition of Escherichia coli DNA-dependent RNA polymerase at 5 ug/ml using calf thymus DNA as primer; assay type: protein-complex assay
[22] = target: T1, Bacterial DNA-directed RNA polymerase (Bacteria); experiment: Inhibition of Escherichia coli DNA-dependent RNA polymerase at 2.5 ug/ml using calf thymus DNA as primer; assay type: protein-complex assay
L1210 [23] = experiment: Cytotoxicity against mouse L1210 cells at 0.5 ug/ml after 48 hrs; assay type: functional; details: L1210, 48 h
L1210 [24] = experiment: Cytotoxicity against mouse L1210 cells at 0.05 ug/ml after 48 hrs; assay type: functional; details: L1210, 48 h
Calf thymus DNA [25] = experiment: Binding affinity to calf thymus DNA at 1 x 10^-5 M by thermal denaturation assay; assay type: nucleic-acid assay; details: Bos taurus
P388 [26] = experiment: Antitumor activity against mouse P388 cells allografted in CDF1 mouse assessed as survival at 6 mg/kg, ip administered on day 1, 5 and 9; assay type: functional; details: route intraperitoneal
[27] = target: T1, Bacterial DNA-directed RNA polymerase (Bacteria); experiment: Inhibition of Escherichia coli DNA-dependent RNA polymerase at 20 ug/ml using calf thymus DNA as primer; assay type: protein-complex assay
Mus musculus [28] = experiment: Toxicity in mouse P388 cells allografted CDF1 mouse assessed as weight loss at 4 mg/kg, ip administered on day 1, 5 and 9; assay type: organism-based; design: dose 4 mg/kg, route intraperitoneal; details: in vivo
Mus musculus [29] = experiment: Toxicity in mouse P388 cells allografted CDF1 mouse assessed as mortality at 6 mg/kg, ip administered on day 1, 5 and 9; assay type: organism-based; design: dose 6 mg/kg, route intraperitoneal; details: in vivo

T1 sequence (P0A7Z4 whole entry partner): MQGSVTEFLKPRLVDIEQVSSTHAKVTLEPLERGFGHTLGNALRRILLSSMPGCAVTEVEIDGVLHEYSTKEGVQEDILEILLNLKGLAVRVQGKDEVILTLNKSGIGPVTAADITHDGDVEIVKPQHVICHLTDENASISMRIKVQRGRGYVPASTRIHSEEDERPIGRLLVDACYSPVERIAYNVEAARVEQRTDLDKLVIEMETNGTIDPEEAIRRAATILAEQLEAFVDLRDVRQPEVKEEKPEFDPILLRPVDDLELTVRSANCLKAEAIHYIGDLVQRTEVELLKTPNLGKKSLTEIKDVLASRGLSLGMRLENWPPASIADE
T1 sequence (P0A800 2-91 partner limits assumed): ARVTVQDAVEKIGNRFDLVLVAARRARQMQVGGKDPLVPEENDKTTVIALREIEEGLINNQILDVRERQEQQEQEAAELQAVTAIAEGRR
T1 sequence (P0A8T7 whole entry partner): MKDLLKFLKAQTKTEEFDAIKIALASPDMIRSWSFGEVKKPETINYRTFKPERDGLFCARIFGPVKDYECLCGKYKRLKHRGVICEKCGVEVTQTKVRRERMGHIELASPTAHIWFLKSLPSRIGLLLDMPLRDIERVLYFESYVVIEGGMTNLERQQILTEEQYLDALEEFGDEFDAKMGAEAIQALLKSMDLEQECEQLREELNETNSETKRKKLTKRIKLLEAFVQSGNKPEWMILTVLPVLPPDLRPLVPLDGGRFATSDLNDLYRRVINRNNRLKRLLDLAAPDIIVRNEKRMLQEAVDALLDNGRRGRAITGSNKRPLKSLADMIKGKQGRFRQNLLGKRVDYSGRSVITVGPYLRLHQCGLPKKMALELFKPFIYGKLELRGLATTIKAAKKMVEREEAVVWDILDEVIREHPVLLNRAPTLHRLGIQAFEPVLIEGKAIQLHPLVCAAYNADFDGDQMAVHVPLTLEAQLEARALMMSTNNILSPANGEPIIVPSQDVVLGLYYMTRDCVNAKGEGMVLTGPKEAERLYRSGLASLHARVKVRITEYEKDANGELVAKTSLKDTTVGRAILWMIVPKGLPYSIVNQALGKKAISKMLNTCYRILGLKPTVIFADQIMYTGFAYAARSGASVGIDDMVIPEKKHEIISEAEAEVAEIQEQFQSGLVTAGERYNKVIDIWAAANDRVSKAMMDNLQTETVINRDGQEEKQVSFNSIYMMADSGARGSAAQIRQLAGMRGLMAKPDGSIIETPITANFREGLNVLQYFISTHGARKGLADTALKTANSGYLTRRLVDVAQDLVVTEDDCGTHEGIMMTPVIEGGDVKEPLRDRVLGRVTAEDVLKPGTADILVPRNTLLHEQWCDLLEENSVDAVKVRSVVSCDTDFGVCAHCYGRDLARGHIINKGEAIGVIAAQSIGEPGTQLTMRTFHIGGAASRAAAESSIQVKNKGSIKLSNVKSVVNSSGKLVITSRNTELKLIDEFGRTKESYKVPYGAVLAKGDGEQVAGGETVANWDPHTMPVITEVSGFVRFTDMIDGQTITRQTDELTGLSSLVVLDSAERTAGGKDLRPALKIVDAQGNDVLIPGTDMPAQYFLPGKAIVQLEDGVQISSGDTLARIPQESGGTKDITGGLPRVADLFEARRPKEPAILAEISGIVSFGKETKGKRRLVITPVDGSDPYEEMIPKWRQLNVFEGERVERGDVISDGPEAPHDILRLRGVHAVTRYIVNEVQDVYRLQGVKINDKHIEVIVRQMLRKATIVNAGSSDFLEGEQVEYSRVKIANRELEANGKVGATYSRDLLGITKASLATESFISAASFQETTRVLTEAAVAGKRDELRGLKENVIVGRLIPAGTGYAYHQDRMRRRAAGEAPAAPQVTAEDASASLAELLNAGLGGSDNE
T1 sequence (P0A8V2 whole entry): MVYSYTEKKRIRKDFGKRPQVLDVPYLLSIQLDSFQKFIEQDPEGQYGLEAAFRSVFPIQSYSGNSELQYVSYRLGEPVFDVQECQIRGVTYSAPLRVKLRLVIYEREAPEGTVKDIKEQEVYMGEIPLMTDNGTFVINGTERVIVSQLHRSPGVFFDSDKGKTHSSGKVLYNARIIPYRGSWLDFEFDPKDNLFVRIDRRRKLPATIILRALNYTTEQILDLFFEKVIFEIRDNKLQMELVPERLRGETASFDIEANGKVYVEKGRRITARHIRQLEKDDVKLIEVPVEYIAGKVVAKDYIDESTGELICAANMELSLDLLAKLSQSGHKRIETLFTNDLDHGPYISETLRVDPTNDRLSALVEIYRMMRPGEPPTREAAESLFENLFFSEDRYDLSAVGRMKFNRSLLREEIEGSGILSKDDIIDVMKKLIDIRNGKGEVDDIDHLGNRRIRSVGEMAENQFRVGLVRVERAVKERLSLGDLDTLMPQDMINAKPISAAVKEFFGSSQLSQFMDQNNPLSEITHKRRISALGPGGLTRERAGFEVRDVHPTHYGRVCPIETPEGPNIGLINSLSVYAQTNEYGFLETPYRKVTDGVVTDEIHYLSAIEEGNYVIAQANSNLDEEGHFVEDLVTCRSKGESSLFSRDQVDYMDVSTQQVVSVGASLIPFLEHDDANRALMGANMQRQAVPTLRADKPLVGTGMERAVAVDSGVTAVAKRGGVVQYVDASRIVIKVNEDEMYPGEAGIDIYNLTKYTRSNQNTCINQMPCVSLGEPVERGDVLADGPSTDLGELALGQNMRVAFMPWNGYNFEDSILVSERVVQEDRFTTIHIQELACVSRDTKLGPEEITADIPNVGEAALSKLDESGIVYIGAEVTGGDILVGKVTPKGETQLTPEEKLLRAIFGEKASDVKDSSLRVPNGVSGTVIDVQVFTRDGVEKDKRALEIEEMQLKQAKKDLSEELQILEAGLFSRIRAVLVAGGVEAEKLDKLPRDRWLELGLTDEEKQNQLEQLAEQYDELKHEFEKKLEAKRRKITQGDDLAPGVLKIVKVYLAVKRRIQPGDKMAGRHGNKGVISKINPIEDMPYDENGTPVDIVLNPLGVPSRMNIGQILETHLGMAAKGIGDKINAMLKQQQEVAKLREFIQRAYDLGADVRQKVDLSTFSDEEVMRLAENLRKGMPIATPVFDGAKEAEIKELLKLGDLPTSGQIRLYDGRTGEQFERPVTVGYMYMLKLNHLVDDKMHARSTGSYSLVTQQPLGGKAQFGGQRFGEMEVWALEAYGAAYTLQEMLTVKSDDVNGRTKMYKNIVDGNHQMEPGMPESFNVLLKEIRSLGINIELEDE

Row | SMILES | Survival (P388 [3]) | T/C (P388 [3]) | inhibition at 0.1 µg/mL (L1210 [4]) | inhibition [5] | Survival (P388 [6]) | T/C (P388 [6]) | Activity (Calf thymus DNA [7]) | inhibition at 10 µg/mL (L1210 [8]) | Activity (Calf thymus DNA [9]) | inhibition at 5 µg/mL (L1210 [10]) | inhibition [11] | inhibition [12] | Survival (P388 [13]) | T/C (P388 [13]) | inhibition at 0.01 µg/mL (L1210 [14]) | inhibition at 0.001 µg/mL (L1210 [15]) | inhibition [16] | inhibition [17] | Survival (P388 [18]) | T/C (P388 [18]) | also measured
1 | Cc1c2oc3c(C)ccc(C(=O)N[C@@H]4C(=O)N[C@H](C(C)C)C(=O)N5CCC[C@H]5C(=O)N(C)CC(=O)N(C)[C@@H](C(C)C)C(=O)O[C@@H]4C)c3nc-2c(C(=O)N[C@@H]2C(=O)N[C@H](C(C)C)C(=O)N3CCC[C@H]3C(=O)N(C)CC(=O)N(C)[C@@H](C(C)C)C(=O)O[C@@H]2C)c(NCCCNC2CC(C)(C)[N+]([O-])C(C)(C)C2)c1=O | – | – | – | – | – | – | – | – | – | – | – | – | – | – | – | – | – | – | – | – | Activity (Mus musculus [1]): Toxic; IC50 [2]: 2730 nM
2 | Cc1c2oc3c(C)ccc(C(=O)N[C@@H]4C(=O)N[C@H](C(C)C)C(=O)N5CCC[C@H]5C(=O)N(C)CC(=O)N(C)[C@@H](C(C)C)C(=O)O[C@@H]4C)c3nc-2c(C(=O)N[C@@H]2C(=O)N[C@H](C(C)C)C(=O)N3CCC[C@H]3C(=O)N(C)CC(=O)N(C)[C@@H](C(C)C)C(=O)O[C@@H]2C)c(NCCCNC2CC(C)(C)N([O])C(C)(C)C2)c1=O | 19 days | 143% | 16% | 52% | 18 days | 181% | Active | 98% | Active | 69% | 22% | 49% | 15 days | 143% | 0% | 0% | 32% | 62% | 18 days | 171% | inhibition at 1 µg/mL (L1210 [19]): 45%; Survival (P388 [20]): 15 days; inhibition [21]: 78%; inhibition [22]: 28%; inhibition at 0.5 µg/mL (L1210 [23]): 33%; inhibition at 0.05 µg/mL (L1210 [24]): 0%; ΔTm (Calf thymus DNA [25]): 3.5 °C; Survival (P388 [26]): 29 days; T/C (P388 [26]): 171%; inhibition [27]: 79%
3 | Cc1c2oc3c(C)ccc(C(=O)N[C@@H]4C(=O)N[C@H](C(C)C)C(=O)N5CCC[C@H]5C(=O)N(C)CC(=O)N(C)[C@@H](C(C)C)C(=O)O[C@@H]4C)c3nc-2c(C(=O)N[C@@H]2C(=O)N[C@H](C(C)C)C(=O)N3CCC[C@H]3C(=O)N(C)CC(=O)N(C)[C@@H](C(C)C)C(=O)O[C@@H]2C)c(NC2CC(C)(C)N([O])C(C)(C)C2)c1=O | 20 days | 190% | 21% | 33% | 19 days | 181% | inactive | 98% | inactive | 96% | 21% | 62% | 17 days | 162% | 0% | 0% | 57% | 77% | 26 days | 248% | inhibition at 1 µg/mL (L1210 [19]): 57%; Survival (P388 [20]): 17 days; T/C (P388 [20]): 162%; inhibition [21]: 41%; inhibition [22]: 37%; inhibition at 0.5 µg/mL (L1210 [23]): 39%; inhibition at 0.05 µg/mL (L1210 [24]): 10%; ΔTm (Calf thymus DNA [25]): 1.7 °C; Survival (P388 [26]): 29 days; T/C (P388 [26]): 276%; inhibition [27]: 78%
4 | Cc1c2oc3c(C)ccc(C(=O)N[C@@H]4C(=O)N[C@H](C(C)C)C(=O)N5CCC[C@H]5C(=O)N(C)CC(=O)N(C)[C@@H](C(C)C)C(=O)O[C@@H]4C)c3nc-2c(C(=O)N[C@@H]2C(=O)N[C@H](C(C)C)C(=O)N3CCC[C@H]3C(=O)N(C)CC(=O)N(C)[C@@H](C(C)C)C(=O)O[C@@H]2C)c(NCCNC2CC(C)(C)N([O])C(C)(C)C2)c1=O | 17 days | 162% | 41% | 56% | 19 days | 181% | inactive | 99% | inactive | 98% | 42% | 81% | 16 days | 152% | 0% | 0% | 78% | 91% | 25 days | 238% | inhibition at 1 µg/mL (L1210 [19]): 71%; Survival (P388 [20]): 19 days; T/C (P388 [20]): 181%; inhibition [21]: 61%; inhibition [22]: 43%; inhibition at 0.5 µg/mL (L1210 [23]): 62%; inhibition at 0.05 µg/mL (L1210 [24]): 15%; ΔTm (Calf thymus DNA [25]): 2.8 °C; Survival (P388 [26]): 8 days; T/C (P388 [26]): 76%; inhibition [27]: 88%
5 | Cc1c2oc3c(C)ccc(C(=O)N[C@@H]4C(=O)N[C@H](C(C)C)C(=O)N5CCC[C@H]5C(=O)N(C)CC(=O)N(C)[C@@H](C(C)C)C(=O)O[C@@H]4C)c3nc-2c(C(=O)N[C@@H]2C(=O)N[C@H](C(C)C)C(=O)N3CCC[C@H]3C(=O)N(C)CC(=O)N(C)[C@@H](C(C)C)C(=O)O[C@@H]2C)c(NCCNC2CC(C)(C)[N+]([O-])C(C)(C)C2)c1=O | – | – | – | – | – | – | – | – | – | – | – | – | – | – | – | – | – | – | – | – | Activity (Mus musculus [28]): Toxic; IC50 [2]: 2750 nM; Activity (Mus musculus [29]): Toxic
6 | Cc1c2oc3c(C)ccc(C(=O)N[C@@H]4C(=O)N[C@H](C(C)C)C(=O)N5CCC[C@H]5C(=O)N(C)CC(=O)N(C)[C@@H](C(C)C)C(=O)O[C@@H]4C)c3nc-2c(C(=O)N[C@@H]2C(=O)N[C@H](C(C)C)C(=O)N3CCC[C@H]3C(=O)N(C)CC(=O)N(C)[C@@H](C(C)C)C(=O)O[C@@H]2C)c(NC2CC(C)(C)[N+]([O-])C(C)(C)C2)c1=O | – | – | – | – | – | – | – | – | – | – | – | – | – | – | – | – | – | – | – | – | Activity (Mus musculus [1]): Toxic
